Experimental findings from patent US20210261553A1, “FUSED TETRAZOLES AS LRRK2 INHIBITORS” (E-SCAPE Bio, Inc., priority 2018, published 2021) are described below.

Assay [1] concerns the target T1, Recombinant G2019S-LRRK2 protein (Homo sapiens, UniProt Q5S007, G2019S).
T1 construct: purchased Life Technologies PV4881
Description: LRRK2 kinase activity assay (LanthaScreen TR-FRET), G2019S mutant. Type of assay: biochemical. The note with it: 400 nM LRRKtide, 25 μM ATP, 60 min at room temperature. Here is the method: (§1) LRRK2 kinase activity was measured using a LanthaScreen™ Kinase Activity Assay from ThermoFisher Scientific. Recombinant wild type or G2019S-LRRK2 protein (Life Technologies, PR8604B or PV4881, respectively), was incubated with a fluorescein-labeled peptide substrate called LRRKtide that is based upon ezrin/radixin/moesin (ERM) (Life Technologies, PV4901) in the presence of ATP and serially diluted compound. After an incubation period of 1 hr, the phosphotransferase activity was stopped and a terbium-labelled anti-pERM antibody (Life Technologies, PV4899) was added to detect the phosphorylation of LRRKtide by measuring the time resolved-Forster resonant energy transfer (TR-FRET) signal from the terbium label on the antibody to the fluorescein tag on LRRKtide, expressed as the 520 nm/495 nm emission ratio. Compound-dependent inhibition of the TR-FRET signal was used to generate a concentration-response curve for IC50 determination.
(§2) The assay was carried out under the following protocol conditions: 1 mM compound in DMSO was serially diluted 1:3, 11 points in DMSO with a Biomek FX and 0.1 μL of the diluted compound was subsequently stamped into the assay plate (384-well format Lumitrac 200, Greiner, 781075) with an Echo Labcyte such that the final compound concentration in the assay was 10 μM to […]. Subsequently, 5 μL of 2× kinase solution (2.9 nM final concentration) was added to the assay plate in assay buffer composed of 50 mM Tris pH 8.5 (Sigma, T6791), 5 mM MgCl2 (Fluka, 63020), 1 mM EGTA (Sigma, E3889), 0.01% BRU-35 (Sigma, P1254) and 2 mM DTT. The reaction was started by addition of 2×ATP/LRRKtide solution in assay buffer such that the final concentration was 400 nM LRRKtide and 25 μM ATP. After 60 min incubation at room temperature, the reaction was stopped by addition of […] containing a final concentration of 2 nM anti-pERM antibody and […]. After a 30 min incubation at RT, the TR-FRET signal was measured on a Wallac 2104 EnVision® multilabel reader at an excitation wavelength of 340 nm and reading emission at 520 nm and 495 nm. The ratio of the 520 nm and 495 nm emission was used to analyze the data.
For orientation: TR-FRET usually uses a lanthanide donor and a delayed reading to cut background.

Assay [2] deals with T2, Recombinant wild type LRRK2 protein (Homo sapiens, UniProt Q5S007).
T2 construct: purchased Life Technologies PR8604B
Description: LRRK2 kinase activity assay (LanthaScreen TR-FRET), wild type. The class given is biochemical. The note with it: 400 nM LRRKtide, 25 μM ATP, 60 min at room temperature; read-out: LRRK2 WT IC50. Here is the method:
as §1, §2

T2 sequence (Q5S007 whole entry): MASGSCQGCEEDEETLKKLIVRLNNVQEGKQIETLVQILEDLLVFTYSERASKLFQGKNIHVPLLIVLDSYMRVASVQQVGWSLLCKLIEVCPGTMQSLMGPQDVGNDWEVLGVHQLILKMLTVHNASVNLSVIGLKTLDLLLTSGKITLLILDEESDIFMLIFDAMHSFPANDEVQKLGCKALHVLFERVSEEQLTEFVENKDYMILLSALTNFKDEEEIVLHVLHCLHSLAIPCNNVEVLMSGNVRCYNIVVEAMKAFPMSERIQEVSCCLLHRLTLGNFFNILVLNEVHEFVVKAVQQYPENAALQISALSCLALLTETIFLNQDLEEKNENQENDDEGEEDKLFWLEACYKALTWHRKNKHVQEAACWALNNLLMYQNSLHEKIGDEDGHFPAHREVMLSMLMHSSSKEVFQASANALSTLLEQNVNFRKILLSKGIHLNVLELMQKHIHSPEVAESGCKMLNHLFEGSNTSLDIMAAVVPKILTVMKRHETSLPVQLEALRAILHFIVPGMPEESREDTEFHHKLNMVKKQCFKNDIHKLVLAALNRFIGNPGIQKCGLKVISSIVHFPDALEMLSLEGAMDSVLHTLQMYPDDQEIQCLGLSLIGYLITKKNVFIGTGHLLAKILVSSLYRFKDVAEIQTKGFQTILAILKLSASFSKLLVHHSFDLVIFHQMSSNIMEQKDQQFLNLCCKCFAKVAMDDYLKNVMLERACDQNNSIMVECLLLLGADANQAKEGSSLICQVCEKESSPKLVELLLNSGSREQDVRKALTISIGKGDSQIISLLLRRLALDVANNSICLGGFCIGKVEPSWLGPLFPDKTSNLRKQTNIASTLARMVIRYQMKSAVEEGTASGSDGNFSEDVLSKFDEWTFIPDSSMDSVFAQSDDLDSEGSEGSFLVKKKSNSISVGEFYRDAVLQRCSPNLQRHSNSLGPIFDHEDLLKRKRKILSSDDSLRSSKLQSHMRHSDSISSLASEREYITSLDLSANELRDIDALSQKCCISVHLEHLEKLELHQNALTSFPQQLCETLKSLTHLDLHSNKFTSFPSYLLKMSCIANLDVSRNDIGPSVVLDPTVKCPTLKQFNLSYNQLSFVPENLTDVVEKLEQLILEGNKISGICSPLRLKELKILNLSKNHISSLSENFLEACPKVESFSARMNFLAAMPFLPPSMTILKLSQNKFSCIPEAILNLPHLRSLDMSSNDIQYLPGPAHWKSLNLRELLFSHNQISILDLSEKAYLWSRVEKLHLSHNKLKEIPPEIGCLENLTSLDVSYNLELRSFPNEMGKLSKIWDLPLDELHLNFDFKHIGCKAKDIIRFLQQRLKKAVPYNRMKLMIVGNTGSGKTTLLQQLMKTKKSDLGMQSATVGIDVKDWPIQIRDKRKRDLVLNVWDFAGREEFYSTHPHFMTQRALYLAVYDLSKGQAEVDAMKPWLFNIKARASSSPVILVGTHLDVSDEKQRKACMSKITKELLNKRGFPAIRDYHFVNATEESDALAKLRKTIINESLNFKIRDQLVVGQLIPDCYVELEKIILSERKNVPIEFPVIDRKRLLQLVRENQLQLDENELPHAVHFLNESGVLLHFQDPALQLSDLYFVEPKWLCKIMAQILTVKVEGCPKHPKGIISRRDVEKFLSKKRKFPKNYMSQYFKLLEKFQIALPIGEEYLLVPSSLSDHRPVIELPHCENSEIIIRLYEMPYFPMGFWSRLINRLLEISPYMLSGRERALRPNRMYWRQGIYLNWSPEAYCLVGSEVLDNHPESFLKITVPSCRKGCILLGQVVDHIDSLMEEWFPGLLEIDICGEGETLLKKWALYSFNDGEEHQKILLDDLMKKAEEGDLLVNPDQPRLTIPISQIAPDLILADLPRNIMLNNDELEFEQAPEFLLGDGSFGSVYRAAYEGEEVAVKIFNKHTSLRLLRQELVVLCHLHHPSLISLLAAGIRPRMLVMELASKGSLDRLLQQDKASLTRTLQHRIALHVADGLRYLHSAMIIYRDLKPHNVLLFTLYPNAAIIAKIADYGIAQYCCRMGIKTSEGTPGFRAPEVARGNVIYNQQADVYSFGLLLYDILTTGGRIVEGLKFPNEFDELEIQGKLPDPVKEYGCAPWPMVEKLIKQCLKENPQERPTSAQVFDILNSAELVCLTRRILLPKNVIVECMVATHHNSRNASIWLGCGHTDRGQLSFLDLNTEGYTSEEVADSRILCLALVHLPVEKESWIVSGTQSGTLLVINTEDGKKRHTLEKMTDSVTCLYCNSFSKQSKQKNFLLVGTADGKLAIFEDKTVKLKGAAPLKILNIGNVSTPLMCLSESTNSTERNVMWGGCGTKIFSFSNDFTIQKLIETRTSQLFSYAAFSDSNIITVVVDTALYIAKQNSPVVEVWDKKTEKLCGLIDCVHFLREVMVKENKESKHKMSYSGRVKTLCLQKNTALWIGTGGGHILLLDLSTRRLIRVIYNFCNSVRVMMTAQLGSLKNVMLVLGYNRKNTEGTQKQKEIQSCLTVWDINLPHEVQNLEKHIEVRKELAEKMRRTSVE
T1 sequence (Q5S007 970-2527 G2019S limits assumed): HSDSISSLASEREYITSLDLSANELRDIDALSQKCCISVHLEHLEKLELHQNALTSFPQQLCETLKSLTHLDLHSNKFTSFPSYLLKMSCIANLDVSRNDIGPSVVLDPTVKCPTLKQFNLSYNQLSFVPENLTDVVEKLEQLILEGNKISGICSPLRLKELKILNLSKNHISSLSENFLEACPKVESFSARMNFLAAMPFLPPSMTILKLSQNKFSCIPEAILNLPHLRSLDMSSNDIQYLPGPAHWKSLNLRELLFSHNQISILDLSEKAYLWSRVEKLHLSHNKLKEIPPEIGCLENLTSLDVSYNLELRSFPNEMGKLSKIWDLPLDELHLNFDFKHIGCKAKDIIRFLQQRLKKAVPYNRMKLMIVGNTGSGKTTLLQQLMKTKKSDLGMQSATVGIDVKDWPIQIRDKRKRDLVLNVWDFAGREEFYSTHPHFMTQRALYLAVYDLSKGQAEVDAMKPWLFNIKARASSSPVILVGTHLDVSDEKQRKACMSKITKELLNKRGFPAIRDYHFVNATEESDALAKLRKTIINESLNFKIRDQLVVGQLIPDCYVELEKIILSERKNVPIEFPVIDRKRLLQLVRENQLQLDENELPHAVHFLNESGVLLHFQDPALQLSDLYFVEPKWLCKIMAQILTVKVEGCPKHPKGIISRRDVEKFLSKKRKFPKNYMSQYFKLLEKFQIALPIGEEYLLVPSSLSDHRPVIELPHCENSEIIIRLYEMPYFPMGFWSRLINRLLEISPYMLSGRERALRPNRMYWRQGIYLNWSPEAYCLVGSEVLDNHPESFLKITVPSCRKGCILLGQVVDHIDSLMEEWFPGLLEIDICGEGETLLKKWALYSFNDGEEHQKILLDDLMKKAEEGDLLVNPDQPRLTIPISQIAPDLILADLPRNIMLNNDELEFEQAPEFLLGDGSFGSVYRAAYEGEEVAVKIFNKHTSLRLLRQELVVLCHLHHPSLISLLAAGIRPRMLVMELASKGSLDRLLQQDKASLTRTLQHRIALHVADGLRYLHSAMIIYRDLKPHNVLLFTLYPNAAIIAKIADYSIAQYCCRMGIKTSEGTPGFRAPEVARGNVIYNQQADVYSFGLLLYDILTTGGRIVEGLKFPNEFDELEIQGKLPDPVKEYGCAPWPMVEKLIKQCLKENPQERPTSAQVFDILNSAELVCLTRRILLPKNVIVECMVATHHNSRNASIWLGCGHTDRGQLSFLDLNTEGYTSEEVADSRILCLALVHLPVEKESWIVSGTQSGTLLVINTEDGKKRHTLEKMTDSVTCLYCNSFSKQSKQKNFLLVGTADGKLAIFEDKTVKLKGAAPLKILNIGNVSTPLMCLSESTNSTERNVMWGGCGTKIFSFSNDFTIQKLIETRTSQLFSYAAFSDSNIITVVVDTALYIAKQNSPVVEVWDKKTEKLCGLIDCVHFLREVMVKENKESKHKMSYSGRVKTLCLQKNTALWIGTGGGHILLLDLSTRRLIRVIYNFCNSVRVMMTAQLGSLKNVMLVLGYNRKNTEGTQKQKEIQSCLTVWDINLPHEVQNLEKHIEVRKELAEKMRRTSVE

Usually IC50 stands for the concentration needed to halve the response being measured. Turning to `CC1=C(C(=O)Nc2ccc3[nH]ncc3c2)C(C)n2nnnc2N1C` (single isomer, unassigned) [Example 2a], the IC50 in assay [1] and in assay [2] was no more than 100 nM throughout.
Consider `CC1=C(C(=O)Nc2ccc3[nH]ncc3c2)C(C)n2nnnc2N1C` (stereo not drawn) [Example 2, N-(1H-indazol-5-yl)-4,5,7-trimethyl-4H,7H-[1,2,3,4]tetrazolo[1,5-a]pyrimidine-6-carboxamide], for which the IC50 was no more than 100 nM in assay [1] and 100 to 1000 nM in assay [2].
Consider `COC(=O)c1c(NC(=O)C2=C(C)N(C)c3nnnn3C2)ccc2n[nH]cc12` [Example 61, Methyl 5-(4,5-dimethyl-4,7-dihydrotetrazolo[1,5-a]pyrimidine-6-carboxamido)-2H-indazole-4-carboxylate], for which the IC50 in assay [1] and in assay [2] was greater than 10000 nM each time.
For the compound `CC1=C(C(=O)Nc2cc3c[nH]nc3cc2N)Cn2nnnc2N1C` [Example 21, N-(6-amino-2H-indazol-5-yl)-4,5-dimethyl-4,7-dihydrotetrazolo[1,5-a]pyrimidine-6-carboxamide], the IC50 in assay [1] and in assay [2] was 1000 to 10000 nM in each case.
Take `CC1=C(C(=O)Nc2ccc3cn[nH]c3c2)Cn2nnnc2N1C` [Example 3, N-(1H-indazol-6-yl)-4,5-dimethyl-4H,7H-[1,2,3,4]tetrazolo[1,5-a]pyrimidine-6-carboxamide]: the IC50 in assay [1] and in assay [2] was 1000 to 10000 nM throughout.
Regarding `CC1=C(C(=O)Nc2cc3c[nH]nc3cc2C(N)=O)Cn2nnnc2N1C` [Example 20, N-(6-carbamoyl-2H-indazol-5-yl)-4,5-dimethyl-4,7-dihydrotetrazolo[1,5-a]pyrimidine-6-carboxamide], the IC50 in assay [1] and in assay [2] was 1000 to 10000 nM each time.
As to `CCC1C(C(=O)Nc2ccc3[nH]ncc3c2)=C(C)N(C)c2nnnn21` (racemic) [Example 8, 7-Ethyl-N-(1H-indazol-5-yl)-4,5-dimethyl-4H,7H-[1,2,3,4]tetrazolo[1,5-a]pyrimidine-6-carboxamide], the IC50 is no more than 100 nM in assay [1] and 100 to 1000 nM in assay [2].
For the compound `CCC1=C(C(=O)Nc2ccc3[nH]ncc3c2)Cn2nnnc2N1C` [Example 5, 5-Ethyl-N-(1H-indazol-5-yl)-4-methyl-4H,7H-[1,2,3,4]tetrazolo[1,5-a]pyrimidine-6-carboxamide], the IC50 in assay [1] and in assay [2] was 100 to 1000 nM throughout.
For the compound `CC1=C(C(=O)Nc2cc3cn[nH]c3cn2)C(C)n2nnnc2N1C` (racemic) [Example 23, 4,5,7-trimethyl-N-(1H-pyrazolo[3,4-c]pyridin-5-yl)-4,7-dihydrotetrazolo[1,5-a]pyrimidine-6-carboxamide], the IC50 was no more than 100 nM in assay [1] and 100 to 1000 nM in assay [2].
The matching figures for `CC1=C(C(=O)Nc2ccc3[nH]nc(-c4ccnc(N5CCOCC5)c4)c3c2)[C@H](C)n2nnnc2N1C` (single isomer, unassigned) [Example 24b]: no more than 100 nM and no more than 100 nM.
On to `CC1=C(C(=O)Nc2ccc3[nH]ncc3c2F)Cn2nnnc2N1C` [Example 14, N-(4-fluoro-1H-indazol-5-yl)-4,5-dimethyl-4,7-dihydrotetrazolo[1,5-a]pyrimidine-6-carboxamide], for which the IC50 in assay [1] is 100 to 1000 nM; in assay [2] it was 1000 to 10000 nM.
Turning to `CC1=C(C(=O)Nc2cnc3n[nH]cc3c2)C(C)n2nnnc2N1C` (stereo not drawn) [Example 16, 4,5,7-trimethyl-N-(2H-pyrazolo[3,4-b]pyridin-5-yl)-4,7-dihydrotetrazolo[1,5-a]pyrimidine-6-carboxamide], the values for the IC50 in assay [1] and in assay [2] were 100 to 1000 nM and 1000 to 10000 nM, respectively.
For `CC1=C(C(=S)Nc2ccc3[nH]ncc3c2)Cn2nnnc2N1C` [Example 15, N-(1H-indazol-5-yl)-4,5-dimethyl-4,7-dihydrotetrazolo[1,5-a]pyrimidine-6-carbothioamide], the values for the half-maximal inhibitory concentration (IC50) in assay [1] and in assay [2] were no more than 100 nM and 100 to 1000 nM, respectively.
For the compound `CC1=C(C(=O)Nc2ccc3n[nH]c(Br)c3c2)[C@@H](C)n2nnnc2N1C` [Example 22, (7R)—N-(3-bromo-2H-indazol-5-yl)-4,5,7-trimethyl-4,7-dihydrotetrazolo[1,5-a]pyrimidine-6-carboxamide], the IC50 in assay [1] and in assay [2] was no more than 100 nM throughout.
As for `CC1=C(C(=O)Nc2ccc3[nH]ncc3c2)Cn2nnnc2N1C(=O)N(C)C` [Example 12, N^6-(1H-indazol-5-yl)-N^4,N^4,5-trimethyltetrazolo[1,5-a]pyrimidine-4,6(7H)-dicarboxamide], the IC50 in assay [1] was no more than 100 nM; in assay [2], 100 to 1000 nM.
